The source of these data is patent US5580956A, “Phospholipase C-inhibiting peptides” (priority 1992, dated 1996).

For assay [1], the system named is KMS-4 cells. The experiment in a line: Cell proliferation-inhibiting activity (BrdU incorporation, Amersham Cell Proliferation Detection Kit). The class given is cell-based. As to conditions: 17 hours with peptide, BrdU-stained cells. How it is done: The following procedure was carried out with an Amersham Cell Proliferation Detection Kit. First, cells [KMS-4; M. Nanba et al., International Journal of Cancer, 32, 697 (1983)] were suspended in a DMEM culture medium (product of Nissui Seiyaku) containing 10% fetal calf serum to a concentration of 1-2×10^4 cells/ml, and 1 ml of the above-mentioned cell suspension was put into each well of a 24-well plate (product of Corning Co.). The cells were cultured for 2 days in a CO2 incubator (37° C., 5% CO2). Next, the culture medium was exchanged with a DMEM medium containing 10% fetal calf serum, and then the test peptide was added thereto and culturing was carried out for 17 hours. The culture medium was again exchanged with a serum-free DMEM medium, 0.5 ml of a solution of the reagents labelled 5-bromo-2'-deoxyuridine (BrdU) and 5-fluoro-2'-deoxyuridine (FdU) [10:1] diluted 1000-fold with the same medium was added to each well, and cultured for 2 hours. The culture medium was removed, and the cells were immobilized with an acetic acid/ethanol solution. The immobilized cells were stained according to the method for the Amersham Cell Proliferation Kit, and then further stained with a 1% Giemsa solution (product of Merck Co.). The number of cells incorporating BrdU and the total cell count within 1 field of vision of the microscope (approximately 200 cells) were determined, and the proportion (%) of stained cells per field of vision was calculated. Furthermore, the same procedure was repeated 10 times, and the average value thereof was defined as the cell proliferation activity (%). The cell proliferation-inhibiting activity was calculated in the following manner. The proliferation activity without addition of peptide was defined as "A", the proliferation activity with addition of the test peptide was defined as "B", and the cell proliferation inhibition rate (X) was determined according to the following equation. X (%)=[…]

The test system of assay [2] is Proteus vulgaris ATCC6897. It is filed as cell-based. As to conditions: ATCC6897, pH 7. How it is done:
(§1) The antibacterial activity was determined by the agar dilution method using a culture medium (pH 7.0) containing 3 g/l bactotrypton (product of Difco Co.), 1 g/l meat extract, 1 g/l glucose and 16 g/l agar.

Assay [3] has as its system Pseudomonas aeruginosa Bin H No. 1. The class given is cell-based. To be noted: Bin H No. 1, pH 7. Here is the method:
as §1

Assay [4] has as its target T1, PLC-γ1 (Bos taurus, UniProt P08487).
T1 construct: A sample (PLC-γ1) was prepared from bovine thymus according to the method of Y. Homma et al; from tissue; host or cells: bovine thymus
T1 sequence (P08487 1-1291): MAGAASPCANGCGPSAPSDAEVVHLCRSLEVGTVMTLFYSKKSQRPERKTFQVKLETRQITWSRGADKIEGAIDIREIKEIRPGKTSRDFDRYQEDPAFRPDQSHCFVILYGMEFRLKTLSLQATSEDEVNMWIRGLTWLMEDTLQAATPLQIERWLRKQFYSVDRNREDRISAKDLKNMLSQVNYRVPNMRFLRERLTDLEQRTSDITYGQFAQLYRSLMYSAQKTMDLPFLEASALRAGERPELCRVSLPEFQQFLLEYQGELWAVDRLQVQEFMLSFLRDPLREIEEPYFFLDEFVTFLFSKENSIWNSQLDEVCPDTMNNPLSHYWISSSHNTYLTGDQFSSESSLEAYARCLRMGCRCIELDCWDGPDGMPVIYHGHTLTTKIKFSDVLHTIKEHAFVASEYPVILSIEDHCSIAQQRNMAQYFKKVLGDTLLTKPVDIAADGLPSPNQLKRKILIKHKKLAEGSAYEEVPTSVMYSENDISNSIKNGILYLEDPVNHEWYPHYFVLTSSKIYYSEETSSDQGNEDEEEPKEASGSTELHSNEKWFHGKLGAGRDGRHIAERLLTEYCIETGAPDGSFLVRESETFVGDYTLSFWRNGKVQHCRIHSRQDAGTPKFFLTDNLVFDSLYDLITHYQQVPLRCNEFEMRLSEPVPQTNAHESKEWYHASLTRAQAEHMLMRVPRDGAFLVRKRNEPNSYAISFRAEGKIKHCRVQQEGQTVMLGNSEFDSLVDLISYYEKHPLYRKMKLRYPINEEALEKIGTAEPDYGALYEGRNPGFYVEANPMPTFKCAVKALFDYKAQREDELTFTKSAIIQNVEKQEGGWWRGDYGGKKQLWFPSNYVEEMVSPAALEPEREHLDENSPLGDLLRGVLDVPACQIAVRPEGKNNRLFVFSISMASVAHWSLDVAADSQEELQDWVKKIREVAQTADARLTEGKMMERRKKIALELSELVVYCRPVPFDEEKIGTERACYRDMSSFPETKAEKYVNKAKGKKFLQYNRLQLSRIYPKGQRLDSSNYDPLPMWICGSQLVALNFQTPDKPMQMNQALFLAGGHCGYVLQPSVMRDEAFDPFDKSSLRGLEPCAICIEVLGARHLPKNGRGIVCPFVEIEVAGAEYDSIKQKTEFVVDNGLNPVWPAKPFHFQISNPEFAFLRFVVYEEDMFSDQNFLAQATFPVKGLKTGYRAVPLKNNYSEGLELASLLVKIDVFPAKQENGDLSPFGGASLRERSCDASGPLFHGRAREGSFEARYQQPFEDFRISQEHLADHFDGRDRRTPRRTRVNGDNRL
The experiment in a line: PLC-inhibiting activity (release of [3H]inositol phosphate from [3H]PIP2). It is filed as biochemical, bovine. As to conditions: PI-PLC-γ1, 37° C., 10 minutes, read-out: Inhibition rate (%); for inhibition at 130 µM (stock): Concentration 130 μM (aqueous solution of test peptide); for inhibition at 120 µM (stock): Concentration 120 μM (aqueous solution of test peptide). How it is done: A sample (PLC-γ1) was prepared from bovine thymus according to the method of Y. Homma et al. described in Biochemical Journal [(Biochem. J.), 269, 13 (1990)]. A solution having the composition listed in Table 1 below was prepared in advance on the ice and the reaction was begun with heating to 37° C. After incubation for 10 minutes, 2 ml of a solution mixture of chloroform/methanol (2:[…]) was added thereto to stop the reaction. The resulting inositol phosphate was extracted with 0.5 ml of 1N hydrochloric acid. Two-phase distribution was carried out by centrifugation (2000×g, 3 minutes), and the amount of ^3 H contained in 0.7 ml of the supernatant was measured with scintillation counter. […] The obtained value of specific radioactivity was defined as "A", the value of specific radioactivity obtained when an equivalent amount of water was added instead of the aqueous solution of the test peptide was defined as "B", the value of specific radioactivity obtained when an equivalent amount of water was added instead of the sample and the aqueous solution of the test peptide was defined as "C", and the inhibition rate (X) was determined according to the following equation. X(%)=[…]

≈ marks a conversion by molar mass, not a printed value. Numbered stars: 1 amine (or outer) side, 2 acyl side, 3 side chain; on linkers, the order of the positions; unused ones are H or OH. Peptide text beside a SMILES is read from it. * marks the point of attachment. Benzoyl(2,3-diOH) = O=C(c1cccc(O)c1O)*; Cyclopentanecarbonyl = O=C(C1CCCC1)*; Propanoyl(3-cHex) = O=C(CCC1CCCCC1)*; Propanoyl(3-cPent) = O=C(CCC1CCCC1)*; Suc = O=C(CCC(=O)[*:2])[*:1]; Octanoyl = CCCCCCCC(=O)*; X1 = O=C(c1ccc(O)cc1O)*

For the compound `CSCC[C@H](NC(=O)[C@H](CCCCN)NC(=O)[C@H](CCCNC(=N)N)NC(=O)[C@H](Cc1ccc(O)cc1)NC(=O)[C@H](CC(C)C)NC(=O)CCC(=O)O)C(=O)N[C@@H](CCCNC(=N)N)C(=O)N[C@@H](CC(C)C)C(=O)N[C@@H](CCCNC(=N)N)C(=O)N[C@@H](Cc1ccc(O)cc1)C(=O)N1CCC[C@H]1C(=O)N[C@H](C(N)=O)C(C)C` [(I-22), HOO (CH2)2 CO-Leu-Tyr-Arg-Lys-Met-Arg-Leu-Arg-Tyr-Pro-Val-NH2] (Suc-LYRKMRLRYPV-NH2), the “Cell proliferation inhibition rate (%)” value in assay [1] (Concentration 31 μM) came out at 84%. Also, the “MIC” value in assay [2] was 83 µg/mL (≈ 52.1 µM); in assay [3] it was 42 µg/mL (≈ 26.3 µM). Also, the inhibition at 130 µM (stock) in assay [4] was determined as 36%.

Take `CSCC[C@H](NC(=O)[C@H](CCCCN)NC(=O)[C@H](CCCNC(=N)N)NC(=O)[C@H](Cc1ccc(O)cc1)NC(=O)[C@H](CC(C)C)NC(=O)C1CCCC1)C(=O)N[C@@H](CCCNC(=N)N)C(=O)N[C@@H](CC(C)C)C(=O)N[C@@H](CCCNC(=N)N)C(=O)N[C@@H](Cc1ccc(O)cc1)C(=O)N1CCC[C@H]1C(=O)N[C@H](C(N)=O)C(C)C` [(I-26), C5 H9 CO-Leu-Tyr-Arg-Lys-Met-Arg-Leu-Arg-Tyr-pro-Val-NH2] (Cyclopentanecarbonyl-LYRKMRLRYPV-NH2): the “Cell proliferation inhibition rate (%)” value in assay [1] (Concentration 31 μM) came out at 71%. Besides, the entries for the “MIC” value in assay [2] and in assay [3] were 83 µg/mL (≈ 52.2 µM) and 42 µg/mL (≈ 26.4 µM), respectively. In addition, the inhibition at 130 µM (stock) in assay [4] is 23%.

`CSCC[C@H](NC(=O)[C@H](CCCCN)NC(=O)[C@H](CCCNC(=N)N)NC(=O)[C@H](Cc1ccc(O)cc1)NC(=O)[C@H](CC(C)C)NC(=O)c1cccc(O)c1O)C(=O)N[C@@H](CCCNC(=N)N)C(=O)N[C@@H](CC(C)C)C(=O)N[C@@H](CCCNC(=N)N)C(=O)N[C@@H](Cc1ccc(O)cc1)C(=O)N1CCC[C@H]1C(=O)N[C@H](C(N)=O)C(C)C` [(I-13), (HO)2 C6 H3 CO-Leu-Tyr-Arg-Lys-Met-Arg-Leu-Arg-Tyr-Pro-Val-NH2] ({Benzoyl(2,3-diOH)}-LYRKMRLRYPV-NH2): the “Cell proliferation inhibition rate (%)” value in assay [1] (Concentration 31 μM) amounted to 69%. Besides, the inhibition at 610 µM (stock) in assay [4] (Concentration 610 μM (aqueous solution of test peptide)) worked out at 89%.

In the case of `CSCC[C@H](NC(=O)[C@H](CCCCN)NC(=O)[C@H](CCCNC(=N)N)NC(=O)[C@H](Cc1ccc(O)cc1)NC(=O)[C@H](CC(C)C)NC(=O)CCC1CCCCC1)C(=O)N[C@@H](CCCNC(=N)N)C(=O)N[C@@H](CC(C)C)C(=O)N[C@@H](CCCNC(=N)N)C(=O)N[C@@H](Cc1ccc(O)cc1)C(=O)N1CCC[C@H]1C(=O)N[C@H](C(N)=O)C(C)C` [(I-16), C6 H11 CH2 CH2 CO-Leu-Tyr-Arg-Lys-Met-Arg-Leu-Arg-Tyr-Pro-Val-NH2] ({Propanoyl(3-cHex)}-LYRKMRLRYPV-NH2), in assay [1] (Concentration 31 μM), the “Cell proliferation inhibition rate (%)” value worked out at 84%. Besides, the inhibition at 120 µM (stock) in assay [4] amounted to 51%.

In the case of `CSCC[C@H](NC(=O)[C@H](CCCCN)NC(=O)[C@H](CCCNC(=N)N)NC(=O)[C@H](Cc1ccc(O)cc1)NC(=O)[C@H](CC(C)C)NC(=O)CCC1CCCC1)C(=O)N[C@@H](CCCNC(=N)N)C(=O)N[C@@H](CC(C)C)C(=O)N[C@@H](CCCNC(=N)N)C(=O)N[C@@H](Cc1ccc(O)cc1)C(=O)N1CCC[C@H]1C(=O)N[C@H](C(N)=O)C(C)C` [(I-23), C5 H9 CH2 CH2 CO-Leu-Tyr-Arg-Lys-Met-Arg-Leu-Arg-Tyr-Pro-Val-NH2] ({Propanoyl(3-cPent)}-LYRKMRLRYPV-NH2), the “Cell proliferation inhibition rate (%)” value in assay [1] (Concentration 31 μM) came to 53%. Besides, the inhibition at 120 µM (stock) in assay [4] was found to be 53%.

Take `CCCCCCCC(=O)N[C@@H](CC(C)C)C(=O)N[C@@H](Cc1ccc(O)cc1)C(=O)N[C@@H](CCCNC(=N)N)C(=O)N[C@@H](CCCCN)C(=O)N[C@@H](CCSC)C(=O)N[C@@H](CCCNC(=N)N)C(=O)N[C@@H](CC(C)C)C(=O)N[C@@H](CCCNC(=N)N)C(=O)N[C@@H](Cc1ccc(O)cc1)C(=O)N1CCC[C@H]1C(=O)N[C@H](C(N)=O)C(C)C` [(I-21), CH3 (CH2)6 CO-Leu-Tyr-Arg-Lys-Met-Arg-Leu-Arg-Tyr-Pro-Val-NH2] (Octanoyl-LYRKMRLRYPV-NH2): the “Cell proliferation inhibition rate (%)” value in assay [1] (Concentration 31 μM) was found to be 56%. Also, in assay [4], the inhibition at 120 µM (stock) is 86%.

Consider “H-YRKMRLRY-NH2 [Compound (I-9), H-Tyr-Arg-Lys-Met-Arg-Leu-Arg-Tyr-NH2]”, for which the “Cell proliferation inhibition rate (%)” value in assay [1] (Concentration 42 μM) is on record as 50%. Further, the inhibition at 850 µM (stock) in assay [4] (Concentration 850 μM (aqueous solution of test peptide)) turned out to be 34%.

With `CSCC[C@H](NC(=O)[C@H](CCCCN)NC(=O)[C@H](CCCNC(=N)N)NC(=O)[C@H](Cc1ccc(O)cc1)NC(=O)[C@H](CC(C)C)NC(=O)c1ccc(O)cc1O)C(=O)N[C@@H](CCCNC(=N)N)C(=O)N[C@@H](CC(C)C)C(=O)N[C@@H](CCCNC(=N)N)C(=O)N[C@@H](Cc1ccc(O)cc1)C(=O)N1CCC[C@H]1C(=O)N[C@H](C(N)=O)C(C)C` [(I-14), (HO)2 C6 H3 CO-Leu-Tyr-Arg-Lys-Met-Arg-Leu-Arg-Tyr-Pro-Val-NH2] (X1-LYRKMRLRYPV-NH2), the “Cell proliferation inhibition rate (%)” value in assay [1] (Concentration 31 μM) is on record as 59%. Besides, the inhibition at 120 µM (stock) in assay [4] is 45%.
